Results: paper PMC7284918, “In-Depth Characterization of EpiIntestinal Microtissue as a Model for Intestinal Drug Absorption and Metabolism in Human” (Pharmaceutics, 2020)

Legend:
UGT [1] = experiment: DME activity in Caco-2: UGT; assay type: in vitro ADME, human; conditions: UGT/7-OH-Coumarin, metabolite 7-OH-Coumarin-Glucuronid
Experimental: (§2) For measurements of DME activities in EpiIntestinal microtissues and Caco-2 cells, both were cultured in 96-well Transwell inserts. Drugs (Table 1) were dissolved in the respective solvent at 200x concentration and diluted in a pre-warmed transport buffer. Diluted substrate solution was applied to the apical (100 µL) and basal (250 µL) compartment of the Transwell and incubated at 37 °C and 5% CO2 and 60 rpm continuous shaking. DME activities were determined by monitoring metabolite formation in basal compartment over time (0, 0.5, 1, 2, 3 and 4 h) with LC-MS/MS. […] Chromatographic separation of samples was performed on YMC Triart C18 (1.9 µm, 30 × 2 mm; YMC Europe, Dinslaken, Germany) LC analytical column. Quantification of all metabolites listed in Table 1 was achieved by the use of calibration curves for the individual metabolites with appropriate concentration ranges.
(§3) A total of 10 µL of the incubation sample were diluted with 90 µL of water containing 10–20% ACN or methanol, 0.1% formic acid and the respective internal standard. To analyze the intracellular metabolite concentration, cells on Transwell inserts were washed twice with ice-cold PBS and stored at −80 °C for 20 min. Afterwards, 150 µL 50% ACN diluted with transport buffer was added to the cells and incubated at room temperature for 30 min. […]

UGT [2] = experiment: DME activity in EpiIntestinal microtissues: UGT; assay type: in vitro ADME, human; conditions: UGT/7-OH-Coumarin, metabolite 7-OH-Coumarin-Glucuronid
Experimental: as §2, §3

SULT [3] = experiment: DME activity in Caco-2: SULT; assay type: in vitro ADME, human; conditions: SULT/7-OH-Coumarin, metabolite 7-OH-Coumarin-Sulfat
Experimental: as §2, §3

SULT [4] = experiment: DME activity in EpiIntestinal microtissues: SULT; assay type: in vitro ADME, human; conditions: SULT/7-OH-Coumarin, metabolite 7-OH-Coumarin-Sulfat
Experimental: as §2, §3

CES1 and CES2 [5] = experiment: CES-mediated metabolism of dabigatran etexilate in human hepatocytes (huHEP); assay type: in vitro ADME; conditions: human hepatocytes in suspension; 2 µM
Experimental: (§1) CES-mediated metabolism of dabigatran etexilate was measured in cryopreserved human hepatocytes (BioIVT, West Sussex, UK) and cryopreserved human intestinal mucosa (in vitro ADMET laboratories, Columbia, MD, USA) in suspension and in Caco-2 cells and EpiIntestinal microtissues grown on Transwell inserts. Dabigatran etexilate was diluted in culture media for the respective cells or tissues. The final concentrations of dabigatran etexilate were selected in an earlier experiment to ensure reasonable turnover of the compound within the incubation time: 2 µM for hepatocytes and intestinal mucosa, 10 µM for Caco-2 and EpiIntestinal microtissues. In the experiments with Transwell inserts, dabigatran etexilate was given to the apical compartments, metabolites were measured in the basal (receiver) compartments. Concentrations of the metabolites were determined by HPLC-MS/MS (Section 2.3).

CES1 and CES2 [6] = experiment: CES-mediated metabolism of dabigatran etexilate in Caco-2 cells; assay type: in vitro ADME, human; conditions: Caco-2 on Transwell; 10 µM apical; basal compartment
Experimental: as §1

CES1 and CES2 [7] = experiment: CES-mediated metabolism of dabigatran etexilate in EpiIntestinal microtissues; assay type: in vitro ADME, human; conditions: EpiIntestinal on Transwell; 10 µM apical; basal compartment
Experimental: as §1

CES1 and CES2 [8] = experiment: CES-mediated metabolism of dabigatran etexilate in human intestinal mucosa (HIM); assay type: in vitro ADME; conditions: human intestinal mucosa in suspension; 2 µM
Experimental: as §1

in vitro = conditions: human, blood
From the text: Blood CLb can be converted from plasma clearance CLp with the blood-to-plasma ratio RB: CLb=CLp/RB

[9] = Intestinal first-pass availability in EpiIntestinal microtissues; assay type: in vitro ADME, human; conditions: human, EpiIntestinal microtissues, 10 µM apical, GI firstpass availability, read-out: Recovery in Basal Comp. @ 24h (%)
Experimental: Compounds were diluted in culture media to a final concentration of 10 µM and added to the apical (donor) compartment (total volume: 100 µL for EpiIntestinal and 200 µL for Caco-2). After the incubation at 37 °C for 2, 4, 6, and 24 h, samples (50 µL) were taken from the basal (receiver) compartment (total volume: 5000 µL for EpiIntestinal and 800 µL for Caco-2). After the last timepoint, samples from the donor compartments and the cell lysates were also collected. Compound concentrations in the samples were determined by HPLC-MS/MS (Section 2.3).
GI first-pass availability of the tested compounds was expressed as fraction (%) of the total amount of a compound added to the donor compartment recovered in the receiver compartment.

BCRP = experiment: Bidirectional permeability assay in Caco-2; assay type: in vitro ADME, human; conditions: human, pH 7.4, with Ko-143 (3 µM), with BCRP inhibitor Ko-143 (3 µM)
P-gp = experiment: Bidirectional permeability assay in Caco-2; assay type: in vitro ADME, human; conditions: human, pH 7.4, with Zosuqidar (5 µM), with P-gp inhibitor Zosuqidar (5 µM)
Caco-2 cells = experiment: Bidirectional permeability assay in Caco-2; assay type: in vitro ADME, human; conditions: with P-gp inhibitor Zosuqidar (5 µM)
[10] = Bidirectional permeability assay in Caco-2; assay type: in vitro ADME, human; conditions: human, no inhibitor, mean of duplicates
[11] = tested on: EpiIntestinal microtissues; experiment: Bidirectional permeability assay in EpiIntestinal microtissues; assay type: in vitro ADME, human
Experimental: Caco-2 cells were obtained from Leibniz Institute DSMZ-German Collection of Microorganisms and Cell Cultures (Braunschweig, Germany) and cultured in DMEM containing 10% FCS, 1% NEAA, 2 mM Glutamin, 100 U/mL Penicillin and 100 µg/mL Streptomycin. […] EpiIntestinal microtissues were obtained from MatTek (Bratislav, Slovakia) and cultured according to the manufacturer’s instruction (24-well format for bidirectional permeability assays and GI firstpass availability assays and 96-well format for screening of DME activities).
Bidirectional permeability assays were performed as described previously. […] In indicated experiments, inhibitors were added to both compartments. Cells were incubated with the compounds for up to 2 h. Samples from the opposite compartment were taken at different timepoints. […] Prior to bioanalysis samples were spiked with internal standard solution and diluted with acetonitrile (ACN) for protein precipitation. Measurement was operated in multiple reaction monitoring (MRM) mode. Quantification was performed using external calibration. Apparent permeability coefficients in the apical to basal direction (Papp,AB) and in the basal to apical direction (Papp,BA) and efflux were calculated as follows Papp,AB=QAB/(C0×s×t) Papp,BA=QBA/(C0×s×t) Efflux=Papp,BA/Papp,AB where Q is the amount of compound recovered in the receiver compartment after the incubation time t, C0 the initial compound concentration given to the donor compartment, and s the surface area of the Transwell inserts. Efflux ratio is calculated as the quotient of Papp,BA to Papp,AB. […] In addition, Transepithelial electrical resistance (TEER) values are measured for each plate before the permeability assay and total recovery in donor and receiver compartments was determined for each compound. All these parameters (efflux of apafant, Papp values of the low permeable compound, TEER values, and total recovery) are used to ensure the quality of the assays.

[12] = human, clinical; cited from earlier work
CYP2D6 [13] = molecular target: T1, CYP2D6 (Homo sapiens, UniProt P10635); experiment: DME activity in EpiIntestinal microtissues: CYP2D6; assay type: in vitro ADME; conditions: CYP2D6/Dextromethorphan, metabolite Dextrorphan
T1 construct: endogenous in cells; host or cells: Caco-2 cells in 96-well Transwell inserts
Experimental: as §2, §3

CYP2D6 [14] = molecular target: T1, CYP2D6; experiment: DME activity in Caco-2: CYP2D6; assay type: in vitro ADME; conditions: CYP2D6/Dextromethorphan, metabolite Dextrorphan
Experimental: as §2, §3

[15] = with BCRP inhibitor Ko-143 (3 µM)
[16] = with P-gp inhibitor Zosuqidar (5 µM)

T1 sequence (P10635 whole entry): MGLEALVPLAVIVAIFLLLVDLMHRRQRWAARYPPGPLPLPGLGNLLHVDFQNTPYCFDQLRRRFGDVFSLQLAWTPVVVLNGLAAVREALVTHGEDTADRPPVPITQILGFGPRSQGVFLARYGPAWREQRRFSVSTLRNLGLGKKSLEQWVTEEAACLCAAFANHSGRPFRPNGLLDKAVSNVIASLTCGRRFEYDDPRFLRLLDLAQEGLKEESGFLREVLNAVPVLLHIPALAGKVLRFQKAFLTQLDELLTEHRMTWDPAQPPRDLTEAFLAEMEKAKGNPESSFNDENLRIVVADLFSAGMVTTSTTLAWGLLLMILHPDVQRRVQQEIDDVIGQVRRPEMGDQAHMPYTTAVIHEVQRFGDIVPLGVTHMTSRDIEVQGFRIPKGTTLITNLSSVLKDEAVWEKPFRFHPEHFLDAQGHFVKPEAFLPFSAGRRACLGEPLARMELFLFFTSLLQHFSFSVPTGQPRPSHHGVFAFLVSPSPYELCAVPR

**Q.** For `O=c1ccc2ccc(O)cc2o1` [7-OH-Coumarin], which “Intracellular Metabolite (% of Total)” value (UGT [1]) is on record?
**A.** 5.5 % of Total

**Q.** What about the “Intracellular Metabolite (% of Total)” value (UGT [2]) of the same molecule?
**A.** 10.0 % of Total

**Q.** What about the “Intracellular Metabolite (% of Total)” value (SULT [3]) of the same molecule?
**A.** BLQ

**Q.** What about the “Intracellular Metabolite (% of Total)” value (SULT [4]) of the same molecule?
**A.** 3.4 % of Total

**Q.** For `CCCCCCOC(=O)NC(=N)c1ccc(NCc2nc3cc(C(=O)N(CCC(=O)OCC)c4ccccn4)ccc3n2C)cc1` [dabigatran etexilate], which “Main metabolite of dabigatran etexilate” value (CES1 and CES2 [5]) is on record?
**A.** BIBR 1087

**Q.** And the “Main metabolite of dabigatran etexilate” value (CES1 and CES2 [6])?
**A.** BIBR 1087

**Q.** What about the “Main metabolite of dabigatran etexilate” value (CES1 and CES2 [7]) of the same molecule?
**A.** BIBR 953

**Q.** And the “Main metabolite of dabigatran etexilate” value (CES1 and CES2 [8])?
**A.** BIBR 951

**Q.** What does the source list for `CC(C)c1nc(N(C)S(C)(=O)=O)nc(-c2ccc(F)cc2)c1/C=C/[C@@H](O)C[C@@H](O)CC(=O)O` [Rosuvastatin]?
**A.** blood plasma ratio (in vitro): 0.75; recovery at 24 h, 10 µM [9]: 30%; efflux ratio at 10 µM (BCRP): 5.5; efflux ratio at 10 µM (P-gp): 19; PappAB (Caco-2 cells): 0.3 10^−6 cm/s; Papp A→B at 10 µM ([10]; pH 7.4, 10 µM): 0.3 ×10⁻⁶ cm/s; efflux ratio at 10 µM ([10]; pH 7.4, Papp,BA/Papp,AB): 21; Efflux ([11]; Papp,BA/Papp,AB, no inhibitor, mean of triplicates): 100.0; Efflux [11, 15]: 3.1; PappAB [11, 15]: 2.6 10^−6 cm/s; Efflux [11, 16]: 25; PappAB [11, 16]: 0.9 10^−6 cm/s; F (total oral availability) [12]: 0.2 [8]; fe (fraction of renal excretion) [12]: 0.3 [23]

**Q.** With `COc1ccc2c(c1)[C@]13CCCC[C@@H]1[C@H](C2)N(C)CC3` [Dextromethorphan] as the molecule, how does the “Intracellular Metabolite (% of Total)” value (CYP2D6 [13]) read?
**A.** BLQ

**Q.** And the “Intracellular Metabolite (% of Total)” value (CYP2D6 [14])?
**A.** BLQ
